Results: patent US10588935B2, “FC receptor (FcRn) binding peptides and uses thereof” (THE BRIGHAM AND WOMEN'S HOSPITAL, INC., priority 2013, dated 2020)
Where two headings read alike, the source gives them in different places. Bridge positions count the residues as written; N and C are the ends. Peptide text beside a SMILES is read from it.

Target: T1, soluble human FcRn (Homo sapiens, UniProt P55899)
T1 construct: Soluble human FcRn was expressed and purified by Biogen-Idec as previously described (29)
Assay: SPR (Biacore) affinity of peptides for immobilized soluble human FcRn
Type: binding
Settings: Table 2
Procedure: SPR analyses were conducted using a Biacore 3000 or T100 instrument. Research-grade CM5 sensor chips and all coupling reagents for immobilization were purchased from Biacore. All proteins were cross-linked to the dextran surface of a CM5 sensor chip by standard amine coupling chemistry as recommended by Biacore. […] Binding experiments were performed at pH 6.0 or 7.4 using 50 mM phosphate, 100 mM sodium chloride and 0.01% surfactant P20. […] Bound albumin protein was then allowed to dissociate from the chip for 5 minutes with running buffer. Any remaining albumin was removed from the chip with a 60 second injection (2 cycles) of pH 8.0 Tris-HCl regeneration buffer (1 M Tris pH 8.0) at 25 μL/min flow rate. The binding responses recorded near the end of the association phase were plotted as a function of concentration. Equilibrium dissociation constants (KD), were derived from sensorgrams using the 1:1 binding model of BIAevaluation software 4.1.

[1] = pH 7.4, data only 100 uM, therefore Kd may be higher, read-out: Kd, pH 7.4 Biacore

T1 sequence (P55899 24-297 limits assumed): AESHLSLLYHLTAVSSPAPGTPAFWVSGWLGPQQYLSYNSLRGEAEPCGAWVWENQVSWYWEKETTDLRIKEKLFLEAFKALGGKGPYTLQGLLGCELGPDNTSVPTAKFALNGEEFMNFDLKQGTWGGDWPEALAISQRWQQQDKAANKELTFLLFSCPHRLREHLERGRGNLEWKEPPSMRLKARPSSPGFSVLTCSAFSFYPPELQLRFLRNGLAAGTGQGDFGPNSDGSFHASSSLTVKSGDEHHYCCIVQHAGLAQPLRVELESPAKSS
T1 sequence (P61769 21-119 partner): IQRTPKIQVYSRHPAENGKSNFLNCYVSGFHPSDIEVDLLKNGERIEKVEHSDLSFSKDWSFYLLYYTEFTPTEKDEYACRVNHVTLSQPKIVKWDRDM

CSCC[C@H](NC(=O)[C@@H](NC(C)=O)C(C)C)C(=O)N[C@@H](Cc1c[nH]cn1)C(=O)N[C@H]1CSSC[C@@H](C(=O)N[C@@H](CC(=O)O)C(=O)N[C@@H](Cc2ccc(O)cc2)C(=O)NCC(N)=O)NC(=O)[C@H](CCCCN)NC(=O)[C@H](Cc2ccccc2)NC(=O)[C@H](CCC(=O)O)NC(=O)[C@H](CCC(=O)O)NC(=O)[C@H](CC(=O)O)NC(=O)[C@H](Cc2c[nH]c3ccccc23)NC(=O)[C@H](Cc2ccccc2)NC1=O [SYN1259] (Ac-VMHCFWDEEFKCDYG-NH2; disulfide 4-12 (inferred)) was tested, and the “Kd Ratio 7.4/6.0” value was 132 and the Kd [1] was 12 µM.

For CSCC[C@H](NC(=O)[C@@H](NC(C)=O)C(C)C)C(=O)N[C@@H](Cc1c[nH]cn1)C(=O)N[C@H]1CSSC[C@@H](C(=O)N[C@@H](CC(=O)O)C(=O)N[C@@H](CCC(N)=O)C(=O)N[C@H](C(N)=O)C(C)C)NC(=O)[C@H](CCCCN)NC(=O)[C@H](Cc2ccccc2)NC(=O)[C@H](CCC(=O)O)NC(=O)[C@H](CCC(=O)O)NC(=O)[C@H](CC(=O)O)NC(=O)[C@H](Cc2c[nH]c3ccccc23)NC(=O)[C@H](Cc2ccccc2)NC1=O [SYN1260] (Ac-VMHCFWDEEFKCDQV-NH2; disulfide 4-12 (inferred)), the “Kd Ratio 7.4/6.0” value was 73, the Kd (pH 6, immobilized shFcRn, data fit steady state or 2 site, read-out: Kd, pH 6** Biacore) was 0.3 µM and the Kd [1] was 22 µM.

CSCC[C@H](NC(=O)[C@@H](NC(C)=O)C(C)C)C(=O)N[C@@H](Cc1c[nH]cn1)C(=O)N[C@H]1CSSC[C@@H](C(=O)N[C@@H](CC(=O)O)C(=O)N[C@@H](Cc2ccc(O)cc2)C(=O)NCC(N)=O)NC(=O)[C@H](CCCNC(=N)N)NC(=O)[C@H](Cc2ccccc2)NC(=O)[C@H](CCC(=O)O)NC(=O)[C@H](CCC(=O)O)NC(=O)[C@H](CC(=O)O)NC(=O)[C@H](Cc2c[nH]c3ccccc23)NC(=O)[C@H](Cc2ccccc2)NC1=O [SYN1381] (Ac-VMHCFWDEEFRCDYG-NH2; disulfide 4-12 (inferred)) was tested, and the “Kd Ratio 7.4/6.0” value was 82.

With CSCC[C@H](NC(=O)[C@@H](NC(C)=O)C(C)C)C(=O)N[C@@H](Cc1c[nH]cn1)C(=O)N[C@H]1CSSC[C@@H](C(=O)N[C@@H](CC(=O)O)C(=O)N[C@@H](CCC(N)=O)C(=O)NCC(N)=O)NC(=O)[C@H](CCCNC(=N)N)NC(=O)[C@H](Cc2ccccc2)NC(=O)[C@H](C)NC(=O)[C@H](CCC(=O)O)NC(=O)[C@H](CC(=O)O)NC(=O)[C@H](Cc2c[nH]c3ccccc23)NC(=O)[C@H](Cc2ccccc2)NC1=O [SYN1382] (Ac-VMHCFWDEAFRCDQG-NH2; disulfide 4-12 (inferred)) the “Kd Ratio 7.4/6.0” value was 25.

In the case of CSCC[C@@H]1NC(=O)[C@H](CCC(=O)O)NC(=O)[C@H](CCC(=O)O)NC(=O)[C@H](CC(=O)O)NC(=O)[C@H](Cc2c[nH]c3ccccc23)NC(=O)[C@H](Cc2c[nH]c3ccccc23)NC(=O)[C@@H](NC(=O)[C@H](CCCCN)NC(=O)[C@H](CCSC)NC(=O)[C@@H](NC(C)=O)C(C)C)CSSC[C@@H](C(=O)N[C@@H](CCCNC(=N)N)C(=O)N[C@@H](C)C(=O)N[C@@H](Cc2ccccc2)C(N)=O)NC(=O)[C@H](CC(C)C)NC1=O [SYN1532] (Ac-VMKCWWDEEMLCRAF-NH2; disulfide 4-12 (inferred)), the “Kd Ratio 7.4/6.0” value is reported as 112 and the Kd [1] is reported as 17.3 µM.

CSCC[C@@H]1NC(=O)[C@H](CCC(=O)O)NC(=O)[C@H](CCC(=O)O)NC(=O)[C@H](CC(=O)O)NC(=O)[C@H](Cc2c[nH]c3ccccc23)NC(=O)[C@H](Cc2c[nH]c3ccccc23)NC(=O)[C@@H](NC(=O)[C@H](Cc2c[nH]cn2)NC(=O)[C@H](CCSC)NC(=O)[C@@H](NC(C)=O)C(C)C)CSSC[C@@H](C(=O)N[C@@H](CCCNC(=N)N)C(=O)N[C@@H](C)C(=O)N[C@@H](Cc2ccccc2)C(N)=O)NC(=O)[C@H](CC(C)C)NC1=O [SYN1533] (Ac-VMHCWWDEEMLCRAF-NH2; disulfide 4-12 (inferred)) was tested, and the “Kd Ratio 7.4/6.0” value was 106.
